Values of other authors, collected in US20150265628A1, “GENOMIC TESTING FOR EFFECTIVE THERAPIES AND DETERMINATION OF DOSING STRATEGY” (CompanionDx Reference Lab, LLC, priority 2014, published 2015).

Assays:
[1] = patients with schizophrenia, while taking the drug; perphenazine 1.0 as comparator
HLA-DQB1 = conditions: marker carriers, under the current blood-monitoring system

Compound | risk of death from suicide, adjusted for risk factors [1] | risk of CIA higher than the overall clozapine-treated population (HLA-DQB1)
OCCOCCN1CCN(C2=Nc3ccccc3Sc3ccccc32)CC1 [quetiapine] | 1.58 | 
CN1CCN(C2=Nc3cc(Cl)ccc3Nc3ccccc32)CC1 [clozapine] | 0.34 | 1,175%
OCCN1CCN(CCCN2c3ccccc3Sc3ccc(Cl)cc32)CC1 [perphenazine] | 1.0 | 
